The values below come from PubChem BioAssay AID1996.

Values after ≈ are worked out from the molar mass of the structure shown.

For the data set the following is noted: buffer; pH 7.4; 200.0 µM.
With `O=C(CNC(=O)c1ccccc1F)OCc1nc2ccccc2s1`, the kinetic solubility (in general, the concentration staying in solution when a stock, usually in DMSO, is diluted into the medium) turned out to be 48.6 µg/mL (≈ 141 µM).
In turn, `CC(=O)NCc1ccc(C(=O)COC(=O)COc2ccc(Cl)c(C)c2)s1` returned a solubility (kinetic) of 38.6 µg/mL (≈ 97.5 µM).
`COc1ccc(OC)c(S(=O)(=O)NCCCN2CCOCC2)c1.Cl` registered a solubility (kinetic) of over 57.1 µg/mL.
As for `S=C1NCN(C2CCCCC2)CN1c1ccccc1`, the figure is over 41.3 µg/mL.
For the compound `O=Nc1c(O)n(Cc2ccccc2)c2ccccc12`, the kinetic solubility is over 37.8 µg/mL.
As for `Cc1nc2cc(C)c(C)cc2s1`, the figure is 0.7 µg/mL (≈ 3.95 µM).
`CN(c1ccccc1)S(=O)(=O)c1cccc2ccccc12` showed a solubility (kinetic) of 2.2 µg/mL (≈ 7.4 µM).
The same measure for `COC(=O)c1ccc(NC(=O)CCOc2ccccc2)cc1`: 4.5 µg/mL (≈ 15 µM).
As for `Cc1ccc(C(=O)NCC(=O)O)o1`, the figure is 25.1 µg/mL (≈ 137 µM); as for `O=C(Nc1ccc2ncccc2c1)c1ccccc1`, 30.7 µg/mL (≈ 124 µM).
The same measure for `Cc1ccc([N+](=O)[O-])c(OCc2ncc(Cl)n2C)c1`: 9.8 µg/mL (≈ 34.8 µM).
In turn, `Cc1cccc(C)c1NC(=O)CN1C(=O)C(C)Oc2ccccc21` (centres undefined) returned a kinetic solubility of 11.6 µg/mL (≈ 35.8 µM).
The same measure for `Cc1cc(C)cc(C(=O)NCCN2CCOCC2)c1`: over 39.4 µg/mL; for `CN(C)c1ccc(C(=O)OCC(=O)c2ccc[nH]2)cc1`: 7.8 µg/mL (≈ 28.6 µM).
As for `NC(=O)NC(=O)CSc1ccccc1`, the solubility (kinetic) is over 31.5 µg/mL.
In turn, `CCc1ccc(C(N)=S)cc1` returned a solubility (kinetic) of over 24.8 µg/mL.
The same measure for `CCOc1ncccc1C(=O)OCC(=O)NCc1ccc(C(=O)OC)cc1`: over 55.9 µg/mL.
As for `CC(C)(CO)NCc1c(OCc2ccc(Cl)cc2)ccc2ccccc12.Cl`, the figure is 57.1 µg/mL; as for `CCOC(=O)CNC(=O)Cc1ccc(OC)cc1`, over 37.7 µg/mL; as for `O=C(COC(=O)c1ccc2ncsc2c1)Nc1ccc(OC(F)(F)F)cc1`, 4.4 µg/mL (≈ 11.1 µM).
The same measure for `Cc1cccc(-n2c(=S)[nH]c3nc4c(cc3c2=O)COC(C)(C)C4)c1`: 1.7 µg/mL (≈ 4.81 µM); for `Cc1cc(C)cc(NC(=O)CCN2CCCC2)c1`: 35.3 µg/mL (≈ 143 µM).
As for `CCOc1ncccc1C(=O)OCC(=O)Nc1ccc(Cl)cn1`, the solubility (kinetic) was 15 µg/mL (≈ 44.7 µM).
As for `COc1ccc(/C=C2\SC(=O)N(CCCC(=O)Nc3cc(Cl)ccc3C(=O)O)C2=O)cc1`, the figure is over 71.2 µg/mL.
Compound `Cc1ccc(NC(=S)c2ccc3ccccc3n2)c(C)c1` yielded a kinetic solubility of under 0.3 µg/mL.
As for `CCCCN(CC)Cc1c(O)ccc2c(-c3ccccc3)cc(=O)oc12`, the figure is 36.1 µg/mL (≈ 103 µM); as for `Cc1ccc(C(=O)Nc2ccc(Cl)cc2C)c(Cl)c1`, under 0.6 µg/mL.
`O=C(CSc1nccn1-c1ccccc1)NCc1ccc(F)cc1` displayed a solubility (kinetic) of 33.5 µg/mL (≈ 98.1 µM).
As for `Cc1cccc(N2CCN(C(=O)NC3CCCCC3)CC2C)c1` (centres undefined), the figure is over 47.3 µg/mL; as for `C=Cc1ccc(N=Cc2c(O)ccc3ccccc23)cc1`, 0.9 µg/mL (≈ 3.29 µM); as for `CC(=O)c1c(C)[nH]c(C(=O)NCC2CCCCC2)c1C`, 23.4 µg/mL (≈ 84.7 µM).
`COc1cccc(NC(=S)N2CCC(c3ccc(C)cc3)C2)c1` (centres undefined): the solubility (kinetic) was determined as 6.9 µg/mL (≈ 21.1 µM).
In turn, `c1ccc(-c2nc3c4ccccc4ccn3c2CN2CCCCC2)cc1` came in with a kinetic solubility of 8.1 µg/mL (≈ 23.7 µM).
As for `CCN1CCN(CCC(=O)Nc2ccccc2C)CC1`, the figure is over 41.3 µg/mL; as for `CC(=O)n1c2ccccc2c2nc3ccccc3nc21`, 1.1 µg/mL (≈ 4.21 µM); as for `Cc1ccc(-c2cc(C(=O)O)c3ccccc3n2)s1`, over 40.4 µg/mL.
The same measure for `CCOc1ccc(CCNC(=O)c2cnc(C)cn2)cc1OCC`: over 49.4 µg/mL; for `CCCCc1nc2sc3c(c2c(=O)[nH]1)CC(C)(C)OC3`: 2.3 µg/mL (≈ 7.87 µM).
The same measure for `COc1ccc(C(=O)NCC(=O)N/N=C/c2cccnc2)cc1`: over 46.8 µg/mL; for `CC(=O)Nc1ccc(NS(=O)(=O)c2ccc(Cl)s2)cc1`: over 49.6 µg/mL.
`CC1CC(=O)Nc2ccccc2N1C(=O)Nc1ccc(F)cc1F` (centres undefined) yielded a solubility (kinetic) of over 49.7 µg/mL.
The same measure for `CN(C)C(CNC(=O)c1cc(S(=O)(=O)N2CCOCC2)ccc1F)c1cccs1` (centres undefined): over 66.2 µg/mL.
As for `O=C(c1ccc(Cl)cc1)N1CCOc2ccccc21`, the figure is 40.3 µg/mL (≈ 147 µM); as for `CCc1cc(C(=O)c2ccc(OC)cc2)c(N)s1`, 20.9 µg/mL (≈ 80 µM); as for `COC(=O)c1ccc(C2NC(=O)c3ccccc3O2)cc1` (centres undefined), 5.2 µg/mL (≈ 18.4 µM).
The same measure for `COc1ccc(-c2nc3ccccc3c(=O)n2CCc2ccc(O)cc2)cc1`: 12.4 µg/mL (≈ 33.3 µM).
On to `O=C1C(Cl)=C(N2CCCCCC2)C(=O)N1c1ccc(Cl)cc1`, for which the solubility (kinetic) worked out at 26.2 µg/mL (≈ 77.2 µM).
In turn, `O=C1NC(=O)c2cc(Oc3ccc([N+](=O)[O-])cc3)ccc21` gave a solubility (kinetic) of 2.5 µg/mL (≈ 8.8 µM).
In turn, `COc1cccc(CC(=O)Nc2ccc(S(=O)(=O)Nc3nccs3)cc2)c1` yielded a solubility (kinetic) of over 60.5 µg/mL.
As for `COc1cccc(CN(C)C(=S)Nc2cccc(C)c2)c1`, the figure is 40.4 µg/mL (≈ 134 µM); as for `COc1cc(NC(=S)NC2CC(C)(C)NC(C)(C)C2)cc(OC)c1`, over 52.7 µg/mL.
As for `CCN(CC)c1ccc(NC(=O)CSC(=O)c2ccccc2)cc1.O=S(=O)(O)O`, the figure is 4.1 µg/mL.
Turning to `Cc1nc([N+](=O)[O-])cn1CC(=O)Nc1ccc([N+](=O)[O-])cc1`, the kinetic solubility is 1.3 µg/mL (≈ 4.26 µM).
The compound `Cc1nnc(-c2ccc(N3CCOCC3)c([N+](=O)[O-])c2)o1` had a solubility (kinetic) of over 43.5 µg/mL.
`CCCCCC1CCC(C(=O)N2CCOCC2)CC1` (centres undefined): the kinetic solubility stood at 27.7 µg/mL (≈ 104 µM).
`O=C(O)c1ccc2c(c1)C(=O)N(c1ccc(Nc3ccccc3)cc1)C2=O` came in with a kinetic solubility of 51.6 µg/mL (≈ 144 µM).
`COC(=O)c1ccc(N2CCN(c3ccccc3)CC2)nc1` displayed a kinetic solubility of 1.7 µg/mL (≈ 5.72 µM).
The compound `CCC(C)NCCOc1cc(C)cc(C)c1C.O=C(O)C(=O)O` (centres undefined) gave a solubility (kinetic) of 35.1 µg/mL.
On to `Cc1ccccc1C(=O)NCCCn1ccnc1`, for which the solubility (kinetic) was over 36.5 µg/mL.
As for `CCN(C(=O)COc1ncnc2ccccc12)C1CCCCC1`, the figure is over 47 µg/mL; as for `CC(=O)c1ccc(N2CCN(C(=S)NCc3ccco3)CC2)cc1`, 45.4 µg/mL (≈ 132 µM); as for `N/C(=N\OC(=O)Cc1ccc([N+](=O)[O-])cc1)c1ccccn1`, 26.6 µg/mL (≈ 88.6 µM).
As to `COc1ccc(C(=O)NCC(=O)OCC(=O)NCc2cccs2)cc1`, the solubility (kinetic) is over 54.4 µg/mL.
As for `COc1ccc(-n2c(SC)nc3sc4c(c3c2=O)CCN(C)C4)cc1`, the figure is 34.8 µg/mL (≈ 93.2 µM); as for `COC(=O)c1cccnc1NC(=S)NC(C)C`, 7.1 µg/mL (≈ 28 µM).
The same measure for `COc1ccc(NC(=O)CN(C)C2=NS(=O)(=O)c3ccccc32)cc1Cl`: 4.4 µg/mL (≈ 11.2 µM); for `O=C(O)c1cccc(CN2C(=O)c3ccccc3C2=O)c1`: over 42.2 µg/mL; for `O=C(NCc1cccnc1)c1cc(C(=O)C2CC2)c[nH]1`: over 40.4 µg/mL.
The compound `CSc1ccc(CNC(C)(C)CO)cc1.Cl` had a solubility (kinetic) of over 39.3 µg/mL.
As for `COc1ccc(C(=O)Nc2cc(C)c(NC(=O)c3ccccn3)cn2)cc1`, the figure is 1.9 µg/mL (≈ 5.24 µM).
As for `O=C(c1cc(Cl)ccc1OCc1ccccc1)N1CCOCC1`, the figure is over 49.8 µg/mL; as for `O=C(CSc1ncccn1)Nc1ccc2c(c1)CCC2`, 37.9 µg/mL (≈ 133 µM).
For the compound `O=C(COC(=O)COc1ccc(Cl)cc1)NC1CC1`, the kinetic solubility is over 42.6 µg/mL.
With `O=C(O)CCC(=O)Nc1cc(C(F)(F)F)cc(C(F)(F)F)c1`, the solubility (kinetic) was determined as 43.6 µg/mL (≈ 132 µM).
